Results published in patent US10689377B2 (Mirati Therapeutics, Inc., priority 2017, dated 2020).
pIC50: −log10 of the molar value.

biological target: KRas G12C (Homo sapiens, UniProt P01116, G12C); test: Cellular inhibition of KRas G12C measured by Phospho-ERK in NCI-H358 cells; assay type: cell-based; details: pERK(Thr202/Tyr204) normalized with GAPDH, NCI-H358 cells, 3 hours; read-out: IC50
In short: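 Readout is pERK(Thr202/Tyr204) immunofluorescence normalized to GAPDH, expressed as percent of DMSO control and fitted with a 4-parameter curve for IC50. Attached NCI-H358 cells received compound for 3 hours in 0.5% DMSO, followed by fixation and methanol permeabilization.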

KRas G12C, sequence (P01116 1-188 isoform P01116-2 G12C): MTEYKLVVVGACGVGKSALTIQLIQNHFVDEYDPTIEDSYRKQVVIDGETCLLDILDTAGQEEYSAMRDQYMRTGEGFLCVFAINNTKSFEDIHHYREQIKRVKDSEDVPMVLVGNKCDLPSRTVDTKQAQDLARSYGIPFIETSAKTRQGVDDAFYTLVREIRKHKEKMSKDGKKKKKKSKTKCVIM

Row | SMILES | pIC50
1 | C=CC(=O)N1CCN(c2nc(OC[C@@H]3CCCN3C)nc3c2CCN(c2nncc4ccccc24)C3)C[C@@H]1CC#N [Example 431, 2-((S)-1-acryloyl-4-(2-(((S)-1-methylpyrrolidin-2-yl)methoxy)-7-(phthalazin-1-yl)-5,6,7,8-tetrahydropyrido[3,4-d]pyrimidin-4-yl)piperazin-2-yl)acetonitrile] | < 6.00
2 | C=CC(=O)N1CCN(c2nc(OC[C@H]3CCCCN3C)nc3c2CCN(c2cccc4ccccc24)C3)C[C@@H]1CC#N [Example 432, 2-((S)-1-acryloyl-4-(2-(((R)-1-methylpiperidin-2-yl)methoxy)-7-(naphthalen-1-yl)-5,6,7,8-tetrahydropyrido[3,4-d]pyrimidin-4-yl)piperazin-2-yl)acetonitrile] | 6.00 to 10.00
3 | C=CC(=O)N1CCN(c2nc(OC[C@@H]3CCCN3C)nc3c2CCN(c2cccc4ccccc24)C3)C[C@@H]1CCOC [Example 433, 1-((S)-2-(2-methoxyethyl)-4-(2-(((S)-1-methylpyrrolidin-2-yl)methoxy)-7-(naphthalen-1-yl)-5,6,7,8-tetrahydropyrido[3,4-d]pyrimidin-4-yl)piperazin-1-yl)prop-2-en-1-one] | < 6.00
4 | C=CC(=O)N1CCN(c2nc(OC[C@@H]3CCCN3C)nc3c2CCN(c2cccc4cccc(C(F)(F)F)c24)C3)C[C@@H]1CC#N [Example 434, 2-((S)-1-acryloyl-4-(2-(((S)-1-methylpyrrolidin-2-yl)methoxy)-7-(8-(trifluoromethyl)naphthalen-1-yl)-5,6,7,8-tetrahydropyrido[3,4-d]pyrimidin-4-yl)piperazin-2-yl)acetonitrile] | 6.00 to 10.00
5 | C=CC(=O)N1CCN(c2nc(OC[C@@H]3CCCN3C)nc3c2CCN(c2cccc4ccn(C)c24)C3)C[C@@H]1CC#N [Example 436, 2-((S)-1-acryloyl-4-(7-(1-methyl-1H-indol-7-yl)-2-(((S)-1-methylpyrrolidin-2-yl)methoxy)-5,6,7,8-tetrahydropyrido[3,4-d]pyrimidin-4-yl)piperazin-2-yl)acetonitrile] | 6.00 to 10.00
6 | C=CC(=O)N1CCN(c2nc(OC[C@@H]3C[C@@H](F)CN3C)nc3c2CCN(c2cccc(C)c2C)C3)C[C@@H]1CC#N [Example 437, 2-((S)-1-acryloyl-4-(7-(2,3-dimethylphenyl)-2-(((2S,4R)-4-fluoro-1-methylpyrrolidin-2-yl)methoxy)-5,6,7,8-tetrahydropyrido[3,4-d]pyrimidin-4-yl)piperazin-2-yl)acetonitrile] | 6.00 to 10.00
7 | Cc1cccc(N2CCc3c(nc(OC[C@@H]4C[C@@H](F)CN4C)nc3N3CCN(C(=O)/C=C/CN(C)C)[C@@H](CC#N)C3)C2)c1C [Example 438, 2-((S)-1-((E)-4-(dimethylamino)but-2-enoyl)-4-(7-(2,3-dimethylphenyl)-2-(((2S,4R)-4-fluoro-1-methylpyrrolidin-2-yl)methoxy)-5,6,7,8-tetrahydropyrido[3,4-d]pyrimidin-4-yl)piperazin-2-yl)acetonitrile] | 6.00 to 10.00
8 | C=CC(=O)N1CCN(c2nc(OC[C@@H]3CCCN3C)nc3c2CCN(c2cccc4ccccc24)C3)C(CC#N)C1 (stereo partly drawn) [Example 439, 2-(4-acryloyl-1-(2-(((S)-1-methylpyrrolidin-2-yl)methoxy)-7-(naphthalen-1-yl)-5,6,7,8-tetrahydropyrido[3,4-d]pyrimidin-4-yl)piperazin-2-yl)acetonitrile] | < 6.00
9 | C=CC(=O)N1CCN(c2nc(OC[C@@H]3[C@H](F)CCN3C)nc3c2CCN(c2cccc4ccccc24)C3)C[C@@H]1CC#N [Example 440, 2-((S)-1-acryloyl-4-(2-(((2R,3R)-3-fluoro-1-methylpyrrolidin-2-yl)methoxy)-7-(naphthalen-1-yl)-5,6,7,8-tetrahydropyrido[3,4-d]pyrimidin-4-yl)piperazin-2-yl)acetonitrile] | 6.00 to 10.00
10 | C=CC(=O)N1CCN(c2nc(OC[C@H]3CCCN3C)nc3c2CCN(c2cccc4ccccc24)C3)C[C@@H]1CC#N [Example 441, 2-((S)-1-acryloyl-4-(2-(((R)-1-methylpyrrolidin-2-yl)methoxy)-7-(naphthalen-1-yl)-5,6,7,8-tetrahydropyrido[3,4-d]pyrimidin-4-yl)piperazin-2-yl)acetonitrile] | 6.00 to 10.00
11 | C=CC(=O)N1CCN(c2nc(OC[C@@H]3CCCN3C)nc3c2CCN(c2cccc4cccn24)C3)C[C@@H]1CC#N [Example 442, 2-((S)-1-acryloyl-4-(7-(indolizin-5-yl)-2-(((S)-1-methylpyrrolidin-2-yl)methoxy)-5,6,7,8-tetrahydropyrido[3,4-d]pyrimidin-4-yl)piperazin-2-yl)acetonitrile] | 6.00 to 10.00
12 | C=CC(=O)N1CCN(c2nc(OC[C@H]3CN(C)CCO3)nc3c2CCN(c2cccc4ccccc24)C3)CC1CC#N (stereo partly drawn) [Example 443, 2-(1-Acryloyl-4-(2-(((R)-4-methylmorpholin-2-yl)methoxy)-7-(naphthalen-1-yl)-5,6,7,8-tetrahydropyrido[3,4-d]pyrimidin-4-yl)piperazin-2-yl)acetonitrile] | 6.00 to 10.00
13 | C=CC(=O)N1CCN(c2nc(OC[C@@H]3CN(C)CCO3)nc3c2CCN(c2cccc4ccccc24)C3)CC1CC#N (stereo partly drawn) [Example 444, 2-(1-acryloyl-4-(2-(((S)-4-methylmorpholin-2-yl)methoxy)-7-(naphthalen-1-yl)-5,6,7,8-tetrahydropyrido[3,4-d]pyrimidin-4-yl)piperazin-2-yl)acetonitrile] | 6.00 to 10.00
14 | C=CC(=O)N1CCN(c2nc(OC[C@@H]3COCCN3C)nc3c2CCN(c2cccc4ccccc24)C3)CC1CC#N (stereo partly drawn) [Example 445, 2-(1-Acryloyl-4-(2-(((S)-4-methylmorpholin-3-yl)methoxy)-7-(naphthalen-1-yl)-5,6,7,8-tetrahydropyrido[3,4-d]pyrimidin-4-yl)piperazin-2-yl)acetonitrile] | 6.00 to 10.00
15 | C=CC(=O)N1CCN(c2nc(OC[C@H]3COCCN3C)nc3c2CCN(c2cccc4ccccc24)C3)CC1CC#N (stereo partly drawn) [Example 446, 2-(1-Acryloyl-4-(2-(((R)-4-methylmorpholin-3-yl)methoxy)-7-(naphthalen-1-yl)-5,6,7,8-tetrahydropyrido[3,4-d]pyrimidin-4-yl)piperazin-2-yl)acetonitrile] | < 6.00
16 | C=CC(=O)N1CCN(c2nc(OC[C@@H]3CC(F)(F)CN3C)nc3c2CCN(c2cccc4ccccc24)C3)C[C@@H]1CC#N [Example 447, 2-((S)-1-Acryloyl-4-(2-(((S)-4,4-difluoro-1-methylpyrrolidin-2-yl)methoxy)-7-(naphthalen-1-yl)-5,6,7,8-tetrahydropyrido[3,4-d]pyrimidin-4-yl)piperazin-2-yl)acetonitrile] | 6.00 to 10.00
17 | C=CC(=O)N1CCN(c2nc(OC[C@H]3CN(C)C4(CC4)CO3)nc3c2CCN(c2cccc4ccccc24)C3)C[C@@H]1CC#N [Example 448, 2-((S)-1-Acryloyl-4-(2-(((R)-4-methyl-7-oxa-4-azaspiro[2.5]octan-6-yl)methoxy)-7-(naphthalen-1-yl)-5,6,7,8-tetrahydropyrido[3,4-d]pyrimidin-4-yl)piperazin-2-yl)acetonitrile] | 6.00 to 10.00
18 | C=CC(=O)N1CCN(c2nc(OC[C@@H]3CCCN3C)nc3c2CCN(c2ccccc2C(F)F)C3)CC1CC#N (stereo partly drawn) [Example 449] | 6.00 to 10.00
